Experimental data: ChEMBL document CHEMBL4715697, “Synthesis and biological activity of benzamide DNA minor groove binders” (2016)

Key:
Type in all cases: functional
Details in all cases: read-out: Activity
NCI-H522 = assay: Growth inhibition of human NCI-H522 cells assessed as cell growth at 10 uM incubated for 48 hrs by sulforhodamine B assay relative to control
COLO 205 = assay: Growth inhibition of human COLO 205 cells assessed as cell growth at 10 uM incubated for 48 hrs by sulforhodamine B assay relative to control
EKVX = assay: Growth inhibition of human EKVX cells assessed as cell growth at 10 uM incubated for 48 hrs by sulforhodamine B assay relative to control
SF-539 = assay: Growth inhibition of human SF-539 cells assessed as cell growth at 10 uM incubated for 48 hrs by sulforhodamine B assay relative to control
HCT-116 = assay: Growth inhibition of human HCT-116 cells assessed as cell growth at 10 uM incubated for 48 hrs by sulforhodamine B assay relative to control
786-0 = assay: Growth inhibition of human 786-0 cells assessed as cell growth at 10 uM incubated for 48 hrs by sulforhodamine B assay relative to control
HOP-62 = assay: Growth inhibition of human HOP-62 cells assessed as cell growth at 10 uM incubated for 48 hrs by sulforhodamine B assay relative to control
SF-268 = assay: Growth inhibition of human SF-268 cells assessed as cell growth at 10 uM incubated for 48 hrs by sulforhodamine B assay relative to control
MCF7 = assay: Growth inhibition of human MCF7 cells assessed as cell growth at 10 uM incubated for 48 hrs by sulforhodamine B assay relative to control
SW-620 = assay: Growth inhibition of human SW-620 cells assessed as cell growth at 10 uM incubated for 48 hrs by sulforhodamine B assay relative to control
U-251 = assay: Growth inhibition of human U-251 cells assessed as cell growth at 10 uM incubated for 48 hrs by sulforhodamine B assay relative to control
T47D = assay: Growth inhibition of human T47D cells assessed as cell growth at 10 uM incubated for 48 hrs by sulforhodamine B assay relative to control
SK-MEL-5 = assay: Growth inhibition of human SK-MEL-5 cells assessed as cell growth at 10 uM incubated for 48 hrs by sulforhodamine B assay relative to control
TK-10 = assay: Growth inhibition of human TK-10 cells assessed as cell growth at 10 uM incubated for 48 hrs by sulforhodamine B assay relative to control
CCRF-CEM = assay: Growth inhibition of human CCRF-CEM cells assessed as cell growth at 10 uM incubated for 48 hrs by sulforhodamine B assay relative to control
NCI-H226 = assay: Growth inhibition of human NCI-H226 cells assessed as cell growth at 10 uM incubated for 48 hrs by sulforhodamine B assay relative to control
SK-MEL-2 = assay: Growth inhibition of human SK-MEL-2 cells assessed as cell growth at 10 uM incubated for 48 hrs by sulforhodamine B assay relative to control
SK-OV-3 = assay: Growth inhibition of human SK-OV-3 cells assessed as cell growth at 10 uM incubated for 48 hrs by sulforhodamine B assay relative to control
NCI/ADR-RES = assay: Growth inhibition of human NCI/ADR-RES cells assessed as cell growth at 10 uM incubated for 48 hrs by sulforhodamine B assay relative to control
Malme-3M = assay: Growth inhibition of human Malme-3M cells assessed as cell growth at 10 uM incubated for 48 hrs by sulforhodamine B assay relative to control
MOLT-4 = assay: Growth inhibition of human MOLT-4 cells assessed as cell growth at 10 uM incubated for 48 hrs by sulforhodamine B assay relative to control
LOX IMVI = assay: Growth inhibition of human LOX IMVI cells assessed as cell growth at 10 uM incubated for 48 hrs by sulforhodamine B assay relative to control
DU-145 = assay: Growth inhibition of human DU-145 cells assessed as cell growth at 10 uM incubated for 48 hrs by sulforhodamine B assay relative to control
SNB-19 = assay: Growth inhibition of human SNB-19 cells assessed as cell growth at 10 uM incubated for 48 hrs by sulforhodamine B assay relative to control
M14 = assay: Growth inhibition of human M14 cells assessed as cell growth at 10 uM incubated for 48 hrs by sulforhodamine B assay relative to control
MDA-MB-231 = assay: Growth inhibition of human MDA-MB-231 cells assessed as cell growth at 10 uM incubated for 48 hrs by sulforhodamine B assay relative to control
MDA-MB-435 = assay: Growth inhibition of human MDA-MB-435 cells assessed as cell growth at 10 uM incubated for 48 hrs by sulforhodamine B assay relative to control
SK-MEL-28 = assay: Growth inhibition of human SK-MEL-28 cells assessed as cell growth at 10 uM incubated for 48 hrs by sulforhodamine B assay relative to control
NCI-H23 = assay: Growth inhibition of human NCI-H23 cells assessed as cell growth at 10 uM incubated for 48 hrs by sulforhodamine B assay relative to control
RXF 393 = assay: Growth inhibition of human RXF 393 cells assessed as cell growth at 10 uM incubated for 48 hrs by sulforhodamine B assay relative to control
BT-549 = assay: Growth inhibition of human BT-549 cells assessed as cell growth at 10 uM incubated for 48 hrs by sulforhodamine B assay relative to control
SNB-75 = assay: Growth inhibition of human SNB-75 cells assessed as cell growth at 10 uM incubated for 48 hrs by sulforhodamine B assay relative to control
A549 = assay: Growth inhibition of human A549/ATCC cells assessed as cell growth at 10 uM incubated for 48 hrs by sulforhodamine B assay relative to control
HL-60(TB) = assay: Growth inhibition of human HL-60(TB) cells assessed as cell growth at 10 uM incubated for 48 hrs by sulforhodamine B assay relative to control
HCT-15 = assay: Growth inhibition of human HCT-15 cells assessed as cell growth at 10 uM incubated for 48 hrs by sulforhodamine B assay relative to control
OVCAR-8 = assay: Growth inhibition of human OVCAR-8 cells assessed as cell growth at 10 uM incubated for 48 hrs by sulforhodamine B assay relative to control
KM12 = assay: Growth inhibition of human KM12 cells assessed as cell growth at 10 uM incubated for 48 hrs by sulforhodamine B assay relative to control
MDA-MB-468 = assay: Growth inhibition of human MDA-MB-468 cells assessed as cell growth at 10 uM incubated for 48 hrs by sulforhodamine B assay relative to control
IGROV-1 = assay: Growth inhibition of human IGROV-1 cells assessed as cell growth at 10 uM incubated for 48 hrs by sulforhodamine B assay relative to control
RPMI-8226 = assay: Growth inhibition of human RPMI-8226 cells assessed as cell growth at 10 uM incubated for 48 hrs by sulforhodamine B assay relative to control

SMILES | growth at 10 µM (NCI-H522) [%] | growth at 10 µM (COLO 205) [%] | growth at 10 µM (EKVX) [%] | growth at 10 µM (SF-539) [%] | growth at 10 µM (HCT-116) [%] | growth at 10 µM (786-0) [%] | growth at 10 µM (HOP-62) [%] | growth at 10 µM (SF-268) [%] | growth at 10 µM (MCF7) [%] | growth at 10 µM (SW-620) [%] | growth at 10 µM (U-251) [%] | growth at 10 µM (T47D) [%] | growth at 10 µM (SK-MEL-5) [%] | growth at 10 µM (TK-10) [%] | growth at 10 µM (CCRF-CEM) [%] | growth at 10 µM (NCI-H226) [%] | growth at 10 µM (SK-MEL-2) [%] | growth at 10 µM (SK-OV-3) [%] | growth at 10 µM (NCI/ADR-RES) [%] | growth at 10 µM (Malme-3M) [%] | also measured
CCN(CC)CC(=O)Nc1cccc(C(=O)Nc2cc(CO)cc(NC(C)=O)c2)c1 | 93.8 | 112 | 120 | 98.7 | 99.6 | 98.7 | 96.9 | 113 | 88.9 | 115 | 103 | 92.9 | 102 | 96.6 | 97.2 | 95.7 | 99.8 | 104 | 107 | 102 | growth at 10 µM (MOLT-4): 111%; growth at 10 µM (LOX IMVI): 98.7%; growth at 10 µM (DU-145): 125%; growth at 10 µM (SNB-19): 105%; growth at 10 µM (M14): 103%; growth at 10 µM (MDA-MB-231): 126%; growth at 10 µM (MDA-MB-435): 110%; growth at 10 µM (SK-MEL-28): 112%; growth at 10 µM (NCI-H23): 98.4%; growth at 10 µM (RXF 393): 102%; growth at 10 µM (BT-549): 105%; growth at 10 µM (SNB-75): 91%; growth at 10 µM (A549): 103%; growth at 10 µM (HL-60(TB)): 105%; growth at 10 µM (HCT-15): 103%; growth at 10 µM (OVCAR-8): 115%; growth at 10 µM (KM12): 110%; growth at 10 µM (MDA-MB-468): 95.7%; growth at 10 µM (IGROV-1): 130%
CC(=O)Nc1ccc(C(=O)Nc2cc(CO)cc(NC(C)=O)c2)cc1 | 89.5 | 118 | 112 | 107 | 106 | 99.4 | 106 | 108 | 95.3 | 118 | 110 | 94.7 | 98.8 | 101 | 82.2 | 99.9 | 96.3 | 105 | 110 | 115 | growth at 10 µM (RPMI-8226): 96.6%; growth at 10 µM (MOLT-4): 96%; growth at 10 µM (LOX IMVI): 105%; growth at 10 µM (DU-145): 108%; growth at 10 µM (SNB-19): 100%; growth at 10 µM (M14): 98.3%; growth at 10 µM (MDA-MB-231): 115%; growth at 10 µM (MDA-MB-435): 108%; growth at 10 µM (SK-MEL-28): 116%; growth at 10 µM (NCI-H23): 107%; growth at 10 µM (RXF 393): 112%; growth at 10 µM (BT-549): 108%; growth at 10 µM (SNB-75): 96.7%; growth at 10 µM (A549): 108%; growth at 10 µM (HL-60(TB)): 101%; growth at 10 µM (HCT-15): 106%; growth at 10 µM (OVCAR-8): 109%; growth at 10 µM (KM12): 115%; growth at 10 µM (MDA-MB-468): 97%
